Like-named read-outs stand apart in the source and are kept apart here.
## CCOc1cc2c3cc(c(OC)cc3n1)[C@H]1C[C@@H]1CC(C)(C)COC(=O)N[C@@H](C1CCCC1)C(=O)N1C[C@@H](C[C@H]1C(=O)OC)O2
From CCOc1cc(O[C@H]2CN[C@H](C(=O)OC)C2)c2cc(C3CC3CC(C)(C)COC(=O)N[C@H](C(=O)O)C3CCCC3)c(OC)cc2n1, amide bond, HATU/DIEA, DCM, 7.1 mM, 18.0 h
  ring closure, yield of all isomers: 65.5%

## COC(=O)[C@@H]1C[C@@H]2CN1C(=O)[C@H](C1CCCCC1)NC(=O)OCC(C)(C)C/C=C/c1cc3c(cc(=O)[nH]c3cc1OC)O2
From C=CCC(C)(C)COC(=O)N[C@H](C(=O)N1C[C@H](Oc2cc(=O)[nH]c3cc(OC)c(C=C)cc23)C[C@H]1C(=O)OC)C1CCCCC1, rcm bond, Zhan 1B, DCM, 4.96 mM, 40.0 °C, 32.0 h
  ring closure, yield of all isomers: 99.5%

## CCOc1cc2c3cc(c(OC)cc3n1)/C=C/C[C@@H]1CCC[C@H]1OC(=O)N[C@@H](C1CCCC1)C(=O)N1C[C@@H](C[C@H]1C(=O)OC)O2
From C=CC[C@@H]1CCC[C@H]1OC(=O)N[C@H](C(=O)N1C[C@H](Oc2cc(OCC)nc3cc(OC)c(C=C)cc23)C[C@H]1C(=O)OC)C1CCCC1, rcm bond, Zhan 1b, DCE, 8.78 mM, 70.0 °C, 21.0 h
  ring closure, yield of all isomers: 90.9%
